{
  "source": "patent US9988341B2",
  "about": "“Bacterial topoisomerase inhibitors and use thereof” (THE FLORIDA INTERNATIONAL UNIVERSITY BOARD OF TRUSTEES, priority 2016, dated 2018)",
  "key": {"M. smegmatis": {"tested_on": "M. smegmatis", "test": "M. smegmatis loss of viability (viable colony counts)", "format": "cell-based"}, "[1]": {"tested_on": "M. smegmatis mc2 155/pTA-M+", "test": "microbe, parasite or virus in culture", "format": "cell-based", "conditions": "Mycolicibacterium smegmatis, MC2155, read-out: MIC, M. smegmatis mc2 155/pTA-M+"}},
  "data": [
    {"molecule": "CCCC[C@@H](CN[C@H](CN)CCCCNC)NCc1cccc2ccccc12", "note": "[Compound 2471-12, (S)—N6-methyl-N2-((S)-2-(naphthalen-1-ylmethylamino)hexyl)hexane-1,2,6-triamine]", "values": [
      {"measurement": "Time course of loss of viable colony counts, MtbTopI overexpression", "setting": "M. smegmatis", "result": "reduction of cell killing"},
      {"measurement": "MIC", "setting": "[1]", "result": 50, "unit": "µM"}
    ]},
    {"molecule": "CCCC[C@@H](CN[C@@H](CN)CCCCNC)NCc1cccc2ccccc12", "note": "[Compound 2471-36]", "values": [
      {"measurement": "MIC", "setting": "[1]", "result": 50, "unit": "µM"}
    ]}
  ]
}
